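Following 48 hours of exposure in 96-well plates, responses at five concentrations were used to interpolate endpoints linearly. The concentration for 50% growth inhibition is given as GI50. Definition used: TGI = concentration required for complete inhibition of growth.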
Experiments:
Assay in all cases: NCI-60 cell line screen, 48 h
[1] = tested on: HOP-62 NSCLC
[2] = tested on: LOX IMVI melanoma
[3] = tested on: NCI-H23 lung
[4] = tested on: SN12C renal
[5] = tested on: OVCAR-4 ovarian
[6] = tested on: RXF 393 renal
[7] = tested on: A549 NSCLC
[8] = tested on: HOP-92 NSCLC
[9] = tested on: UACC-62 melanoma
[10] = tested on: PC-3 prostate
[11] = tested on: DU-145 prostate
[12] = tested on: SF-539 CNS
[13] = tested on: EKVX NSCLC
[14] = tested on: MCF7 breast
[15] = tested on: SK-MEL-2 melanoma
[16] = tested on: KM12 colon
[17] = tested on: HCT-116 colon
[18] = tested on: HCC-2998 colon
[19] = tested on: ACHN renal
[20] = tested on: A498 renal
[21] = tested on: T-47D breast
[22] = tested on: SNB-75 CNS
[23] = tested on: NCI-H522 lung
[24] = tested on: MALME-3M melanoma
[25] = tested on: TK-10 renal
[26] = tested on: HL-60(TB) leukemia
[27] = tested on: NCI-H460 lung
[28] = tested on: OVCAR-3 ovarian
[29] = tested on: HT29 colon
[30] = tested on: 786-0 renal
[31] = tested on: SF-268 CNS
[32] = tested on: M14 melanoma
[33] = tested on: CAKI-1 renal
[34] = tested on: MDA-N
[35] = tested on: MDA-MB-435
[36] = tested on: CCRF-CEM leukemia
[37] = tested on: HS 578T breast
[38] = tested on: COLO 205 colon
[39] = tested on: OVCAR-8 ovarian
[40] = tested on: SW-620 colon
[41] = tested on: UO-31 renal
[42] = tested on: SK-OV-3 ovarian
[43] = tested on: U251 CNS
[44] = tested on: SK-MEL-5 melanoma
[45] = tested on: SK-MEL-28 melanoma
[46] = tested on: SR leukemia
[47] = tested on: SNB-19 CNS
[48] = tested on: MDA-MB-231 breast
[49] = tested on: HCT-15 colon
[50] = tested on: IGROV1 ovarian
[51] = tested on: OVCAR-5 ovarian
[52] = tested on: NCI/ADR-RES ovarian
[53] = tested on: SF-295 CNS
[54] = tested on: UACC-257 melanoma

`CCCn1c2c(c3ccccc3c1=O)C(=O)c1cc3c(cc1-2)OCO3` was tested, and the GI50 [1] was greater than 100 µM, the TGI [1] was greater than 100 µM and the GI50 [2] was greater than 100 µM. The TGI [2] was greater than 100 µM, the GI50 [3] was greater than 100 µM and the TGI [3] was greater than 100 µM. For the same compound, the GI50 [4] was greater than 100 µM, the TGI [4] was greater than 100 µM and the GI50 [5] was greater than 100 µM. The TGI [5] was greater than 100 µM, the GI50 [6] was greater than 100 µM and the TGI [6] was greater than 100 µM. The GI50 [7] was greater than 100 µM, the TGI [7] was greater than 100 µM and the GI50 [8] was 159 nM. For the same compound, the TGI [8] was 458 nM, the GI50 [9] was greater than 100 µM and the TGI [9] was greater than 100 µM. For the same compound, the GI50 [10] was 71.1 µM, the TGI [10] was greater than 100 µM and the GI50 [11] was greater than 100 µM. For the same compound, the TGI [11] was greater than 100 µM, the GI50 [12] was greater than 100 µM and the TGI [12] was greater than 100 µM. The GI50 [13] was 91.2 µM, the TGI [13] was greater than 100 µM and the GI50 [14] was 9.39 µM. It also gave a TGI [14] greater than 100 µM, a GI50 [15] greater than 100 µM and a TGI [15] greater than 100 µM. For the same compound, the GI50 [16] was 31.5 µM, the TGI [16] was greater than 100 µM and the GI50 [17] was 30.5 µM. For the same compound, the TGI [17] was greater than 100 µM, the GI50 [18] was 16.9 µM and the TGI [18] was 99.6 µM. It also gave a GI50 [19] greater than 100 µM, a TGI [19] greater than 100 µM and a GI50 [20] greater than 100 µM. It also gave a TGI [20] greater than 100 µM, a GI50 [21] greater than 100 µM and a TGI [21] greater than 100 µM. The GI50 [22] was greater than 100 µM, the TGI [22] was greater than 100 µM and the GI50 [23] was 60.1 µM. The TGI [23] was greater than 100 µM, the GI50 [24] was greater than 100 µM and the TGI [24] was greater than 100 µM. The GI50 [25] was 86.9 µM, the TGI [25] was greater than 100 µM and the GI50 [26] was greater than 100 µM. For the same compound, the TGI [26] was greater than 100 µM, the GI50 [27] was 26.8 µM and the TGI [27] was greater than 100 µM. For the same compound, the GI50 [28] was 21 µM, the TGI [28] was greater than 100 µM and the GI50 [29] was greater than 100 µM. For the same compound, the TGI [29] was greater than 100 µM, the GI50 [30] was 77.2 µM and the TGI [30] was greater than 100 µM. The GI50 [31] was greater than 100 µM, the TGI [31] was greater than 100 µM and the GI50 [32] was greater than 100 µM. It also gave a TGI [32] greater than 100 µM, a GI50 [33] of 97.3 µM and a TGI [33] greater than 100 µM. It also gave a GI50 [34] greater than 100 µM, a TGI [34] greater than 100 µM and a GI50 [35] greater than 100 µM. It also gave a TGI [35] greater than 100 µM, a GI50 [36] greater than 100 µM and a TGI [36] greater than 100 µM. It also gave a GI50 [37] greater than 100 µM, a TGI [37] greater than 100 µM and a GI50 [38] greater than 100 µM. For the same compound, the TGI [38] was greater than 100 µM, the GI50 [39] was greater than 100 µM and the TGI [39] was greater than 100 µM. For the same compound, the GI50 [40] was 83.2 µM, the TGI [40] was greater than 100 µM and the GI50 [41] was greater than 100 µM. The TGI [41] was greater than 100 µM, the GI50 [42] was greater than 100 µM and the TGI [42] was greater than 100 µM. The GI50 [43] was greater than 100 µM, the TGI [43] was greater than 100 µM and the GI50 [44] was greater than 100 µM. The TGI [44] was greater than 100 µM, the GI50 [45] was greater than 100 µM and the TGI [45] was greater than 100 µM. For the same compound, the GI50 [46] was 6.1 µM, the TGI [46] was greater than 100 µM and the GI50 [47] was greater than 100 µM. It also gave a TGI [47] greater than 100 µM, a GI50 [48] greater than 100 µM and a TGI [48] greater than 100 µM. For the same compound, the GI50 [49] was greater than 100 µM, the TGI [49] was greater than 100 µM and the GI50 [50] was 44.4 µM. It also gave a TGI [50] greater than 100 µM, a GI50 [51] greater than 100 µM and a TGI [51] greater than 100 µM. For the same compound, the GI50 [52] was 76.9 µM, the TGI [52] was greater than 100 µM and the GI50 [53] was 44.8 µM. The TGI [53] was greater than 100 µM, the GI50 [54] was greater than 100 µM and the TGI [54] was greater than 100 µM.
